Measurements as given in US6472348B1, “Pyridone derivatives and herbicides” (Kumiai Chemical Industry Co., Ltd., priority 1996, dated 2002).

Experiments:
[1] = tested on: barnyardgrass (Ec); assay: Test Example 1: herbicidal effects by paddy field soil treatment; assay type: in vivo; conditions: 100 g of the active ingredient per 10 ares, 21st day after the application, index 0-5 of Table 47;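 also: grade of growth control; 5 = at least 90%; 4 = 70 to 90%; 3 = 50 to 70%; 2 = 30 to 50%; 1 = 10 to 30%; 0 = under 10%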
Outline: (§1)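 Herbicidal effect was scored against a graded standard 21 days after treatment. Seeds were sown in puddled, leveled paddy soil flooded to 3 cm depth, and the active ingredient was applied at 100 g per 10 ares before greenhouse culture.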

[2] = tested on: bulrush (Sc); assay: as above; assay type: in vivo; conditions: 100 g of the active ingredient per 10 ares, 21st day after the application, index 0-5 of Table 47;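 also: grade of growth control; 5 = at least 90%; 4 = 70 to 90%; 3 = 50 to 70%; 2 = 30 to 50%; 1 = 10 to 30%; 0 = under 10%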
Outline: as §1

[3] = tested on: monochoria (Mo); assay: as above; assay type: in vivo; conditions: 100 g of the active ingredient per 10 ares, 21st day after the application, index 0-5 of Table 47;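 also: grade of growth control; 5 = at least 90%; 4 = 70 to 90%; 3 = 50 to 70%; 2 = 30 to 50%; 1 = 10 to 30%; 0 = under 10%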
Outline: as §1

[4] = tested on: Digitaria ciliaris (Di); assay: Test Example 2: herbicidal effects by upland field soil treatment; assay type: in vivo; conditions: 100 g of the active ingredient per 10 ares, evaluated on the 21st day after application;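 also: grade of growth control; 5 = at least 90%; 4 = 70 to 90%; 3 = 50 to 70%; 2 = 30 to 50%; 1 = 10 to 30%; 0 = under 10%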
Text: (§2) (Test on Herbicidal Effects by Upland Field Soil Treatment)

[5] = tested on: barnyardgrass (Ec); assay: as above; assay type: in vivo; conditions: 100 g of the active ingredient per 10 ares, evaluated on the 21st day after application
Text: as §2

[6] = tested on: common lambsquarters (Ch); assay: as above; assay type: in vivo; conditions: 100 g of the active ingredient per 10 ares, evaluated on the 21st day after application
Text: as §2

[7] = tested on: pale smartweed (Po); assay: as above; assay type: in vivo; conditions: 100 g of the active ingredient per 10 ares, evaluated on the 21st day after application
Text: as §2

[8] = tested on: rice flatsedge (Ci); assay: as above; assay type: in vivo; conditions: 100 g of the active ingredient per 10 ares, evaluated on the 21st day after application
Text: as §2

[9] = tested on: slender amaranth (Am); assay: as above; assay type: in vivo; conditions: 100 g of the active ingredient per 10 ares, evaluated on the 21st day after application
Text: as §2

[10] = tested on: Diaitaria ciliaris (Di); assay: Test Example 3: herbicidal effects by upland field foliage treatment; assay type: in vivo; set-up: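 grade of growth control; 5 = at least 90%; 4 = 70 to 90%; 3 = 50 to 70%; 2 = 30 to 50%; 1 = 10 to 30%; 0 = under 10%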; conditions: 100 g active ingredient per 10 ares, evaluated 14th day after treatment
Outline: (§3)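 Weeds were sown in sand-filled pots (surface area: 120 cm^2), covered with soil and grown in a greenhouse for 2 weeks before foliar treatment. Plants then stayed in the greenhouse, and herbicidal effect was scored against graded standards on the 14th day after treatment.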

[11] = tested on: barnyardgrass (Ec); assay: as above; assay type: in vivo; set-up: scale not given here; conditions: 100 g active ingredient per 10 ares, evaluated 14th day after treatment
Outline: as §3

[12] = tested on: common lambsquarters (Ch); assay: as above; assay type: in vivo; set-up: scale not given here; conditions: 100 g active ingredient per 10 ares, evaluated 14th day after treatment
Outline: as §3

[13] = tested on: pale smartweed (Po); assay: as above; assay type: in vivo; set-up: scale not given here; conditions: 100 g active ingredient per 10 ares, evaluated 14th day after treatment
Outline: as §3

[14] = tested on: rice flatsedge (Ci); assay: as above; assay type: in vivo; set-up: scale not given here; conditions: 100 g active ingredient per 10 ares, evaluated 14th day after treatment
Outline: as §3

[15] = tested on: slender amaranth (Am); assay: as above; assay type: in vivo; set-up: scale not given here; conditions: 100 g active ingredient per 10 ares, evaluated 14th day after treatment
Outline: as §3

[16] = tested on: wheat (Tr); assay: Test Example 9: crop plant selectivity by upland field foliage treatment (wheat), phytotoxicity; conditions: dose 1.6 g ai/10a, 14th day after treatment
Outline: (§4)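 Seeds of wheat, pale smartweed, slender amaranth, common lambsquarters and China jute are sown in sand and grown 2 weeks under glass. Foliage is then treated, culture resumes in the greenhouse, and damage is graded on the 14th day.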

[17] = tested on: China jute (Ab); assay: Test Example 9: crop plant selectivity by upland field foliage treatment (wheat), herbicidal effects; assay type: in vivo; set-up: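 grade of growth control; 5 = at least 90%; 4 = 70 to 90%; 3 = 50 to 70%; 2 = 30 to 50%; 1 = 10 to 30%; 0 = under 10%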; conditions: dose 1.6 g ai/10a, 14th day after treatment
Outline: as §4

[18] = tested on: common lambsquarters (Ch); assay: as above; assay type: in vivo; set-up: scale not given here; conditions: dose 1.6 g ai/10a, 14th day after treatment
Outline: as §4

[19] = tested on: pale smartweed (Po); assay: as above; assay type: in vivo; set-up: scale not given here; conditions: dose 1.6 g ai/10a, 14th day after treatment
Outline: as §4

[20] = tested on: slender amaranth (Am); assay: as above; assay type: in vivo; set-up: scale not given here; conditions: dose 1.6 g ai/10a, 14th day after treatment
Outline: as §4

[21] = tested on: soybean (Gl); assay: Test Example 10: crop plant selectivity by upland field foliage treatment (soybean), phytotoxicity; conditions: dose 1.6 g ai/10a, 14th day after treatment
Experimental: (§5) (Test on Crop Plant Selectivity by Upland Field Foliage Treatment)
(§6) In a plastic pot (surface area: 600 cm^2) filled with sand, soybean (Gl), pale smartweed (Po), slender amaranth (Am), common lambsquarters (Ch) and China jute (Ab) were sown and cultured in a green house for 2 weeks. […] The plants were then cultured in a green house, and the evaluation of the herbicidal effects and phytotoxicity was conducted on the 14th day after the treatment in accordance with the standards as identified in Table 47.

[22] = tested on: China jute (Ab); assay: Test Example 10: crop plant selectivity by upland field foliage treatment (soybean), herbicidal effects; assay type: in vivo; conditions: dose 1.6 g ai/10a, 14th day after treatment
Experimental: as §5, §6

[23] = tested on: common lambsquarters (Ch); assay: as above; assay type: in vivo; conditions: dose 1.6 g ai/10a, 14th day after treatment
Experimental: as §5, §6

[24] = tested on: pale smartweed (Po); assay: as above; assay type: in vivo; conditions: dose 1.6 g ai/10a, 14th day after treatment
Experimental: as §5, §6

[25] = tested on: slender amaranth (Am); assay: as above; assay type: in vivo; conditions: dose 1.6 g ai/10a, 14th day after treatment
Experimental: as §5, §6

[26] = tested on: corn (Ze); assay: Test Example 11: crop plant selectivity by upland field foliage treatment (corn), phytotoxicity; conditions: upland field foliage treatment, dose 1.6 g ai/10a, 14th day after treatment
Outline: (§7)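 Corn with pale smartweed, slender amaranth, common lambsquarters and China jute sown in sand-filled pots and grown 2 weeks in a greenhouse before foliage treatment. Herbicidal effect and crop phytotoxicity scored on day 14 after treatment against a rating standard.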

[27] = tested on: China jute (Ab); assay: Test Example 11: crop plant selectivity by upland field foliage treatment (corn), herbicidal effects; assay type: in vivo; set-up: scale not given here; conditions: upland field foliage treatment (corn test), dose 1.6 g ai/10a, 14th day after treatment
Outline: as §7

[28] = tested on: common lambsquarters (Ch); assay: as above; assay type: in vivo; set-up: scale not given here; conditions: upland field foliage treatment (corn test), dose 1.6 g ai/10a, 14th day after treatment
Outline: as §7

[29] = tested on: pale smartweed (Po); assay: as above; assay type: in vivo; set-up: scale not given here; conditions: upland field foliage treatment (corn test), dose 1.6 g ai/10a, 14th day after treatment
Outline: as §7

[30] = tested on: slender amaranth (Am); assay: as above; assay type: in vivo; set-up: scale not given here; conditions: upland field foliage treatment (corn test), dose 1.6 g ai/10a, 14th day after treatment
Outline: as §7

melting point: 99 to 101 °C
Structure (SMILES): C#CCOCc1cc(-c2ccc(C(F)(F)F)n(C)c2=O)c(F)cc1Cl [Compound No. 1-199, 3-(4-chloro-2-fluoro-5-propargyloxymethylphenyl)-1-methyl-6-trifluoromethyl-2(1H)-pyridone]
Herbicidal effects Ec [1]: 5
Herbicidal effects Sc [2]: 5
Herbicidal effects Mo [3]: 5
Herbicidal effects Di [4]: 5
Herbicidal effects Ec [5]: 5
Herbicidal effects Ch [6]: 5
Herbicidal effects Po [7]: 5
Herbicidal effects Ci [8]: 5
Herbicidal effects Am [9]: 5
Herbicidal effects Di [10]: 5
Herbicidal effects Ec [11]: 4
Herbicidal effects Ch [12]: 5
Herbicidal effects Po [13]: 5
Herbicidal effects Ci [14]: 5
Herbicidal effects Am [15]: 5
Phytotoxicity Tr [16]: 2
Herbicidal effects Ab [17]: 5
Herbicidal effects Ch [18]: 5
Herbicidal effects Po [19]: 5
Herbicidal effects Am [20]: 5
Phytotoxicity Gl [21]: 2
Herbicidal effects Ab [22]: 5
Herbicidal effects Ch [23]: 5
Herbicidal effects Po [24]: 5
Herbicidal effects Am [25]: 5
Phytotoxicity Ze [26]: 2
Herbicidal effects Ab [27]: 5
Herbicidal effects Ch [28]: 5
Herbicidal effects Po [29]: 5
Herbicidal effects Am [30]: 5
